Experimental data reported in PubChem BioAssay AID192 (DTP/NCI, 2004).
“And” between values parts separate entries of the source, which are not always exact repeats. Equal entries are not always repeated. Inconclusive results and toxic doses are left out.

Tested on: BDF1 mice, B16 melanoma ip, median survival T/C
Experiment: NCI In Vivo Anticancer Drug Screen. Data for tumor model B16 Melanoma (intraperitoneal) in B6D2F1 (BDF1) mice
Details: endpoint: median survival time, higher = longer survival
Method in brief: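 Tumor-bearing mice received test compound or vehicle. Survival or tumor size was then measured in both groups. The treated-group figure was divided by the control-group figure.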

[1] = dose: 2.0 mg/kg/injection, schedule: Q01DX009 (ip), vehicle: saline
[2] = dose: 4.0 mg/kg/injection, schedule: Q01DX009 (ip), vehicle: saline
[3] = dose: 8.0 mg/kg/injection, schedule: Q01DX009 (ip), vehicle: saline
[4] = dose: 12.5 mg/kg/injection, schedule: Q01DX009 (ip), vehicle: Klucel (hydroxypropylcellulose) (HPC)
[5] = dose: 100.0 mg/kg/injection, schedule: Q01DX009 (ip), vehicle: saline with Tween-80
[6] = dose: 200.0 mg/kg/injection, schedule: Q01DX009 (ip), vehicle: saline with Tween-80
[7] = dose: 400.0 mg/kg/injection, schedule: Q01DX009 (ip), vehicle: saline with Tween-80
[8] = dose: 25.0 mg/kg/injection, schedule: Q01DX009 (ip), vehicle: saline with Tween-80
[9] = dose: 50.0 mg/kg/injection, schedule: Q01DX009 (ip), vehicle: saline with Tween-80
[10] = dose: 6.25 mg/kg/injection, schedule: Q01DX009 (ip), vehicle: saline
[11] = dose: 12.5 mg/kg/injection, schedule: Q01DX009 (ip), vehicle: saline
[12] = dose: 50.0 mg/kg/injection, schedule: Q01DX009 (ip), vehicle: saline
[13] = dose: 100.0 mg/kg/injection, schedule: Q01DX009 (ip), vehicle: saline
[14] = dose: 100.0 mg/kg/injection, schedule: Q04DX003 (ip), vehicle: saline
[15] = dose: 200.0 mg/kg/injection, schedule: Q01DX009 (ip), vehicle: saline
[16] = dose: 200.0 mg/kg/injection, schedule: Q04DX003 (ip), vehicle: saline
[17] = dose: 0.1 mg/kg/injection, schedule: Q01DX009 (ip), vehicle: saline with Tween-80
[18] = dose: 0.2 mg/kg/injection, schedule: Q01DX009 (ip), vehicle: saline with Tween-80
[19] = dose: 0.8 mg/kg/injection, schedule: Q01DX009 (ip), vehicle: saline with Tween-80
[20] = dose: 25.0 mg/kg/injection, schedule: Q01DX009 (ip), vehicle: saline
[21] = dose: 1.56 mg/kg/injection, schedule: Q01DX009 (ip), vehicle: Klucel (hydroxypropylcellulose) (HPC)
[22] = dose: 3.12 mg/kg/injection, schedule: Q01DX009 (ip), vehicle: Klucel (hydroxypropylcellulose) (HPC)
[23] = dose: 6.25 mg/kg/injection, schedule: Q01DX009 (ip), vehicle: Klucel (hydroxypropylcellulose) (HPC)
[24] = dose: 25.0 mg/kg/injection, schedule: Q01DX009 (ip), vehicle: Klucel (hydroxypropylcellulose) (HPC)

## Cn1c(CCCC(=O)O)nc2cc(N(CCCl)CCCl)ccc21
dose: 1.0 mg/kg/injection, schedule: Q01DX009 (ip), vehicle: saline
  T/C: 115 % of control
[1]
  T/C: 94 % of control
dose: 2.5 mg/kg/injection, schedule: Q01DX009 (ip), vehicle: saline
  T/C: 157 % of control
[2]
  T/C: 103 % of control
dose: 5.0 mg/kg/injection, schedule: Q01DX009 (ip), vehicle: saline
  T/C: 152 % of control
dose: 6.0 mg/kg/injection, schedule: Q01DX009 (ip), vehicle: saline
  T/C: 101 % of control
[3]
  T/C: 159 % of control
dose: 10.0 mg/kg/injection, schedule: Q01DX009 (ip), vehicle: saline
  T/C: 157 % of control and 186 % of control
dose: 12.0 mg/kg/injection, schedule: Q01DX009 (ip), vehicle: saline
  T/C: 115 % of control
dose: 20.0 mg/kg/injection, schedule: Q01DX009 (ip), vehicle: saline
  T/C: 89 % of control

## N#Cc1nc2ccccc2nc1C#N
[4]
  T/C: 110 % of control
dose: 12.5 mg/kg/injection, schedule: Q04DX003 (ip), vehicle: Klucel (hydroxypropylcellulose) (HPC)
  T/C: 97 % of control
dose: 25.0 mg/kg/injection, schedule: Q04DX003 (ip), vehicle: Klucel (hydroxypropylcellulose) (HPC)
  T/C: 102 % of control
dose: 50.0 mg/kg/injection, schedule: Q04DX003 (ip), vehicle: Klucel (hydroxypropylcellulose) (HPC)
  T/C: 95 % of control

## NNC(=O)CCC(=O)NN
[5]
  T/C: 102 % of control
[6]
  T/C: 104 % of control
[7]
  T/C: 93 % of control

## COc1ccc(-c2csc(=[N+]3CCCCC3)s2)cc1
dose: 1.56 mg/kg/injection, schedule: Q01DX009 (ip), vehicle: water
  T/C: 94 % of control and 95 % of control
dose: 3.12 mg/kg/injection, schedule: Q01DX009 (ip), vehicle: water
  T/C: 90 % of control and 101 % of control
dose: 6.25 mg/kg/injection, schedule: Q01DX009 (ip), vehicle: water
  T/C: 101 % of control and 102 % of control
dose: 12.5 mg/kg/injection, schedule: Q01DX009 (ip), vehicle: water
  T/C: 103 % of control and 109 % of control
dose: 25.0 mg/kg/injection, schedule: Q01DX009 (ip), vehicle: water
  T/C: 86 % of control and 110 % of control

## BrCC(Br)CBr
[8]
  T/C: 92 % of control
[9]
  T/C: 90 % of control
[5]
  T/C: 90 % of control

## CCCCCC(CN(C)C)C(=O)/C=C\c1ccc(Cl)cc1Cl (centres undefined)
[10]
  T/C: 105 % of control
[11]
  T/C: 97 % of control

## CCC(=O)Oc1ccc(/C=N/NC(N)=S)nc1
[12]
  T/C: 153 % of control
[13]
  T/C: 121 % of control

## COC(=O)/C=C/c1ccc([N+](=O)[O-])cc1
dose: 100.0 mg/kg/injection, schedule: Q04DX003 (ip), vehicle: saline with Tween-80
  T/C: 90 % of control
dose: 200.0 mg/kg/injection, schedule: Q04DX003 (ip), vehicle: saline with Tween-80
  T/C: 93 % of control
dose: 400.0 mg/kg/injection, schedule: Q04DX003 (ip), vehicle: saline with Tween-80
  T/C: 86 % of control

## C=C1C(=O)OC2CC1CCC1(C)OC1CCC(C)=CCCC2(C)O (centres undefined)
dose: 0.04 mg/kg/injection, schedule: Q01DX009 (ip), vehicle: Klucel (hydroxypropylcellulose) (HPC)
  T/C: 90 % of control
dose: 0.09 mg/kg/injection, schedule: Q01DX009 (ip), vehicle: Klucel (hydroxypropylcellulose) (HPC)
  T/C: 91 % of control
dose: 1.8 mg/kg/injection, schedule: Q01DX009 (ip), vehicle: Klucel (hydroxypropylcellulose) (HPC)
  T/C: 86 % of control and 91 % of control
dose: 7.5 mg/kg/injection, schedule: Q01DX009 (ip), vehicle: Klucel (hydroxypropylcellulose) (HPC)
  T/C: 98 % of control

## CN1CCC2(CC1)SSC1(CCN(C)CC1)S2
[13]
  T/C: 122 % of control
[14]
  T/C: 91 % of control
[15]
  T/C: 116 % of control
[16]
  T/C: 91 % of control

## CC1=C(c2cc3ccccc3c3ccccc23)CCCC1
[5]
  T/C: 90 % of control
[6]
  T/C: 88 % of control
[7]
  T/C: 91 % of control

## CC#CS(=O)(=O)C(C)(C)C
dose: 50.0 mg/kg/injection, schedule: Q04DX003 (ip), vehicle: saline
  T/C: 104 % of control
[14]
  T/C: 106 % of control
[16]
  T/C: 105 % of control

## O=[N+]([O-])c1cc(S(=O)(=O)OCC2CO2)ccc1Cl (centres undefined)
[17]
  T/C: 100 % of control
[18]
  T/C: 93 % of control
dose: 0.4 mg/kg/injection, schedule: Q01DX009 (ip), vehicle: saline with Tween-80
  T/C: 97 % of control
[19]
  T/C: 95 % of control

## O=C(Nc1ccccc1C(F)(F)F)c1cccc(C(=O)Nc2ccccc2C(F)(F)F)c1
dose: 100.0 mg/kg/injection, schedule: Q04DX003 (ip), vehicle: carboxymethylcellulose (CMC)
  T/C: 100 % of control
dose: 200.0 mg/kg/injection, schedule: Q04DX003 (ip), vehicle: carboxymethylcellulose (CMC)
  T/C: 91 % of control

## COc1cc(/C=C/[N+](=O)[O-])c([N+](=O)[O-])cc1OC
[10]
  T/C: 102 % of control
[11]
  T/C: 90 % of control
[20]
  T/C: 92 % of control

## CC(C)(C)OC(=O)NC(CCC(N)=O)C(=O)O (centres undefined)
[12]
  T/C: 96 % of control
[13]
  T/C: 97 % of control
[15]
  T/C: 96 % of control

## NCC(O)c1ccc(O)c(O)c1 (centres undefined)
dose: 1.56 mg/kg/injection, schedule: Q01DX009 (ip), vehicle: saline
  T/C: 97 % of control and 105 % of control
dose: 3.12 mg/kg/injection, schedule: Q01DX009 (ip), vehicle: saline
  T/C: 95 % of control and 107 % of control
[10]
  T/C: 100 % of control and 106 % of control
[11]
  T/C: 99 % of control and 102 % of control

## Cc1cc2cc3c(C)cc(=O)oc3c(C)c2o1
[5]
  T/C: 119 % of control
[6]
  T/C: 117 % of control
[7]
  T/C: 100 % of control

## CC(C)Oc1ccc2c(c1)N(CCC1CCCCN1)c1ccccc1S2 (centres undefined)
[21]
  T/C: 97 % of control
[22]
  T/C: 98 % of control
[23]
  T/C: 112 % of control
[4]
  T/C: 91 % of control
[24]
  T/C: 86 % of control

## O=C1c2ccc(Br)cc2-c2cc(Br)ccc21
[8]
  T/C: 87 % of control
[5]
  T/C: 93 % of control

## COc1cc2cccc(OC)c(=O)c2c(O)c1OC
[24]
  T/C: 97 % of control
dose: 50.0 mg/kg/injection, schedule: Q01DX009 (ip), vehicle: Klucel (hydroxypropylcellulose) (HPC)
  T/C: 105 % of control
dose: 100.0 mg/kg/injection, schedule: Q01DX009 (ip), vehicle: Klucel (hydroxypropylcellulose) (HPC)
  T/C: 97 % of control

## CCC[P+](c1ccccc1)(c1ccccc1)c1ccccc1
[1]
  T/C: 96 % of control
[2]
  T/C: 98 % of control
[3]
  T/C: 115 % of control
dose: 16.0 mg/kg/injection, schedule: Q01DX009 (ip), vehicle: saline
  T/C: 115 % of control
dose: 32.0 mg/kg/injection, schedule: Q01DX009 (ip), vehicle: saline
  T/C: 108 % of control

## CC(C(=O)O)C(=O)O.[NH2-].[NH2-].[Pt+2]
dose: 0.78 mg/kg/injection, schedule: Q01DX009 (ip), vehicle: Klucel (hydroxypropylcellulose) (HPC)
  T/C: 102 % of control
[21]
  T/C: 109 % of control
[22]
  T/C: 120 % of control
[23]
  T/C: 156 % of control
[10]
  T/C: 124 % of control
[4]
  T/C: 175 % of control
[11]
  T/C: 160 % of control
[24]
  T/C: 216 % of control
[20]
  T/C: 175 % of control
[12]
  T/C: 209 % of control
[13]
  T/C: 202 % of control

## CSc1nc(N)cc(NC(=O)CCl)n1
dose: 6.25 mg/kg/injection, schedule: Q01DX009 (ip), vehicle: saline with Tween-80
  T/C: 109 % of control
dose: 12.5 mg/kg/injection, schedule: Q01DX009 (ip), vehicle: saline with Tween-80
  T/C: 97 % of control
[8]
  T/C: 89 % of control and 118 % of control
[9]
  T/C: 97 % of control and 120 % of control

## CC(=O)CC(c1ccccc1)c1c(O)c2ccccc2oc1=O (centres undefined)
dose: 0.05 mg/kg/injection, schedule: Q01DX009 (ip), vehicle: saline with Tween-80
  T/C: 107 % of control
[17]
  T/C: 98 % of control
[18]
  T/C: 104 % of control
[19]
  T/C: 90 % of control
